Measurements: ChEMBL document CHEMBL1136215, “Potent quinoxaline-based inhibitors of PDGF receptor tyrosine kinase activity. Part 1: SAR exploration and effective bioisosteric replacement of a phenyl substituent” (Bioorg Med Chem Lett, 2003)

Test system: HASMC
Assay: Inhibition of mitogenesis in human aortic smooth muscle cells(HASMC)
Format: functional, cell-based

| SMILES | IC50 |
| --- | --- |
| COc1cc2ncc(O[C@H]3CC4CCC3C4)nc2cc1OC (mixture of isomers) | 395 nM |
| COc1cc2ncc(N[C@@H]3CC4CCC3C4)nc2cc1OC (stereo in doubt; 38) | 61 nM |
| COc1cc2ncc(N[C@H]3CC4CCC3C4)nc2cc1OC (some centres not stated) | 585 nM |

Target: T1, Platelet-derived growth factor receptor (Homo sapiens, UniProt P09619+P16234)
Assay: Inhibition of Platelet-derived growth factor receptor
Format: protein-complex assay

| SMILES | IC50 |
| --- | --- |
| COc1cc2ncc(NC3CCCC3)nc2cc1OC | 128 nM |
| COc1cc2ncc(NC3CCCCC3)nc2cc1OC | 124 nM |
| COc1cc2ncc(N[C@@H]3CC4CCC3C4)nc2cc1OC (mixture of isomers) | 879 nM |
| COc1cc2ncc(NC3CCCC(C)C3)nc2cc1OC (configuration not stated) | 41 nM |
| COc1cc2ncc(O[C@H]3CC4CCC3C4)nc2cc1OC (mixture of isomers) | 25 nM |
| COc1ccc2ncc(Nc3ccccc3)nc2c1 | 42 nM |
| COc1cc2ncc(NC3CC4CCC3C4)nc2cc1OC (racemic) | 20 nM |
| COc1cc2ncc(NCc3ccccc3)nc2cc1OC | 92 nM |
| COc1cc2ncc(OC3CCCC3)nc2cc1OC | 159 nM |
| COc1cc2cc(-c3ccsc3)cnc2cc1OC | 461 nM |
| COc1cc2cc(OC3CCCCC3)cnc2cc1OC | 601 nM |
| COc1cc2cc(NC3CCCCC3)cnc2cc1OC | 96 nM |
| COc1cc2ncc(SC3CCCC3)nc2cc1OC | 226 nM |
| Cc1cc2ncc(Nc3ccccc3)nc2cc1C | 340 nM |
| COc1cc2ncc(Nc3cccc(Cl)c3)nc2cc1OC | 4 nM |
| COc1cc2ncc(OC3CCCCC3)nc2cc1OC | 65 nM |
| COc1cc2ncc(N[C@@H]3CC4CCC3C4)nc2cc1OC (stereo in doubt; 38) | 15 nM |
| c1ccc(Nc2cnc3ccccc3n2)cc1 | 5100 nM |
| COc1cc2ncc(Nc3ccccc3)nc2cc1OC | 6 nM |
| COc1cc2ncc(O[C@@H]3CC4CCC3C4)nc2cc1OC (mixture of isomers) | 265 nM |
| COc1ccc2nc(Nc3ccccc3)cnc2c1 | 1600 nM |
| COc1cc2ncc(N[C@H]3CC4CCC3C4)nc2cc1OC (some centres not stated) | 742 nM |

Target: T1, Platelet-derived growth factor receptor
Assay: Inhibition of Platelet-derived growth factor receptor at 1 uM
Format: protein-complex assay

| SMILES | inhibition |
| --- | --- |
| COc1cccc2ncc(Nc3ccccc3)nc12 | 11% |
| COc1cccc2nc(Nc3ccccc3)cnc12 | 5% |
| COc1cc2ncc(SC3CCCCC3)nc2cc1OC | 0% |
| COc1cc2ncc(N(C)c3ccccc3)nc2cc1OC | 0% |
| CCC1CCC(Oc2cnc3cc(OC)c(OC)cc3n2)CC1 (configuration not stated) | 16% |
| COc1cc2ncc(NCC3CCCCC3)nc2cc1OC | 12% |
| COc1cc2ncc(Nc3ccc(Cl)cc3)nc2cc1OC | 8% |
